Literature values, collected in patent US7585869B2, “Substituted heterocylces for the treatment of abnormal cell growth” (Pfizer, Inc., priority 2003, dated 2009).

Tests used:
[1] = test system: carcinoma which does not express the EGF receptor
[2] = test system: transplanted human mammary carcinoma which expresses epidermal growth factor receptor tyrosine kinase (EGFR); details: athymic nude mice

Q: With `O=CN/C=C/c1cc(O)ccc1O` [erbstatin] as the compound, how does the “effect on growth of another carcinoma” value [1] read?
A: without effect on the growth

Q: What about the “effect on growth of transplanted human mammary carcinoma” value [2] of the same compound?
A: selectively attenuates the growth
